We go through eight molecules from ChEMBL document CHEMBL4007389, “Discovery and evaluation of inhibitors to the immunosuppressive enzyme indoleamine 2,3-dioxygenase 1 (IDO1): Probing the active site-inhibitor interactions” (Eur J Med Chem, 2017).

Series [1] concerns the target T1, Indoleamine 2,3-dioxygenase 1 (Homo sapiens, UniProt P14902). In words: Inhibition of recombinant human IDO1 expressed in bacterial expression system using L-Tryptophan as substrate after 25 mins in absence of GSH and tween20 by fluorescence assay.
Target sequence in this assay (P14902 whole entry): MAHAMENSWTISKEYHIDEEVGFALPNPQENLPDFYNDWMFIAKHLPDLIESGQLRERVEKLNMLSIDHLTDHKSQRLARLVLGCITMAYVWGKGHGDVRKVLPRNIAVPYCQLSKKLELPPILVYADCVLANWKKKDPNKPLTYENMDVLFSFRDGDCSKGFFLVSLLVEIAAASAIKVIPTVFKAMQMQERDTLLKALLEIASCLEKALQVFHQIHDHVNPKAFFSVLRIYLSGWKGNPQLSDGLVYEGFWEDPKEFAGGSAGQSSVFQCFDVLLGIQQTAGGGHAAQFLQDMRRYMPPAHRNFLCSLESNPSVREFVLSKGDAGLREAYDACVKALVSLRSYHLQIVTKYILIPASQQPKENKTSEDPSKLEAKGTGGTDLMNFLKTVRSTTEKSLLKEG
The target of series [2] is T1, Indoleamine 2,3-dioxygenase 1. Conditions: 50 uM.
Target sequence in this assay (P14902 whole entry, looked up): as the sequence (P14902 whole entry) above
Series [3] addresses Indoleamine 2,3-dioxygenase 1 (Homo sapiens, UniProt P14902, S167A).
The species named for the next series is Homo sapiens. In words: Selectivity ratio of IC50 for recombinant human IDO1 S167A mutant expressed in Escherichia coli SG13009(pREP4) to IC50 for recombinant human IDO1 expressed in bacterial expression system.
In series [4] the target is T1, Indoleamine 2,3-dioxygenase 1. The series is described as follows: Inhibition of recombinant human IDO1 expressed in bacterial expression system using L-Tryptophan as substrate after 25 mins in presence of GSH and tween20 by fluorescence assay.
Target sequence in this assay (P14902 whole entry): as above
The target is the same in series [5]. In words: Inhibition of full length recombinant human His-tagged IDO1 expressed in mouse LLTC cells using L-tryptophan as substrate after 24 hrs. It counts as cell-based.
Target sequence in this assay (P14902 whole entry): as above
Series [6] shares this target. In words: Inhibition of recombinant human IDO1 expressed in bacterial expression system using L-Tryptophan as substrate after 25 mins in absence of GSH and presence of tween20 by fluorescence assay.
Target sequence in this assay (P14902 whole entry): as above
Series [7] in a line: Cytotoxicity against mouse LLTC cells assessed as reduction in cell viability after 24 hrs by MTT assay. It counts as cell-based. As to conditions: read-out: LC50. A general note: Formazan colour is commonly taken as a measure of viable cells.
Series [8] addresses T1, Indoleamine 2,3-dioxygenase 1. The series is described as follows: Inhibition of recombinant human IDO1 expressed in bacterial expression system at 150 uM using L-Tryptophan as substrate after 25 mins by fluorescence assay relative to control.
Target sequence in this assay (P14902 whole entry, looked up): as the sequence (P14902 whole entry) above
Series [9] shares this target. In words: Inhibition of recombinant human IDO1 expressed in bacterial expression system at 50 uM using L-Tryptophan as substrate after 25 mins by fluorescence assay relative to control.
Target sequence in this assay (P14902 whole entry, looked up): as the sequence (P14902 whole entry) above
For series [10] the target is unchanged. The series is described as follows: Irreversible inhibition of recombinant human IDO1 expressed in bacterial expression system at 3 uM using L-Tryptophan as substrate after preincubated for 90 mins followed by 100 fold compound dilution measured after 15 mins by fluorescence assay relative to control.
Target sequence in this assay (P14902 whole entry, looked up): as the sequence (P14902 whole entry) above
Series [11] has the same target. As to conditions: 30 uM.
Target sequence in this assay (P14902 whole entry, looked up): as the sequence (P14902 whole entry) above
The target is the same in series [12]. The series is described as follows: Inhibition of full length recombinant human His-tagged IDO1 expressed in mouse LLTC cells using L-tryptophan as substrate after 24 hrs in presence of GSH. It counts as cell-based.
Target sequence in this assay (P14902 whole entry): as above
The next series relates to LLTC cell line. The series is described as follows: Cytotoxicity against mouse LLTC cells assessed as reduction in cell viability after 24 hrs in presence of GSH by MTT assay. It counts as cell-based.
Series [13] concerns the target T1, Indoleamine 2,3-dioxygenase 1. Conditions: 40 uM.
Target sequence in this assay (P14902 whole entry, looked up): as the sequence (P14902 whole entry) above
The test system of series [14] is Indoleamine 2,3-dioxygenase 1 (Homo sapiens), P14902 [S167A]. The series is described as follows: Inhibition of recombinant human IDO1 S167A mutant expressed in Escherichia coli SG13009(pREP4) at 20 uM using L-Tryptophan as substrate after 25 mins by fluorescence assay relative to control.
Series [15] addresses T1, Indoleamine 2,3-dioxygenase 1. As to conditions: 80 uM.
Series [16] has the same target. In words: Inhibition of recombinant human IDO1 expressed in bacterial expression system at 350 uM using L-Tryptophan as substrate after 25 mins by fluorescence assay relative to control.

As a reminder, the IC50 is the concentration needed to halve the response being measured. What is called inhibition is the drop in the measured response relative to a control, in per cent.

The structures appear in SMILES notation.

Indoleamine 2,3-dioxygenase 1 (Homo sapiens, UniProt P14902, S167A), sequence (P14902 whole entry S167A): as the sequence (P14902 whole entry) above, with S167A counted along it
Indoleamine 2,3-dioxygenase 1 (Homo sapiens), P14902 [S167A], sequence (P14902 whole entry S167A): as the sequence (P14902 whole entry) above, with S167A counted along it

On to `Cc1ccc([S+]([O-])c2ccc([N+](=O)[O-])c3nonc23)cc1` (stereo unspecified), for which the IC50 in series [1] amounted to 14 µM; in series [3] it was 0.66 µM; in [4] it was 2.1 µM; in series [5], 15 µM; in series [6], 12 µM. The same molecule yielded an inhibition in series [2] above 75%. Moreover, the Ratio IC50 in the series filed under Homo sapiens was 0.055. Also, in [7], the CC50 at 24 h was 29 µM.
As for `CCC1=C(c2ccccc2)C(=O)c2ccccc21`, in [8], the inhibition amounted to 20%.
Take `COc1ccc(C2=C(N)c3ccccc3C2=O)cc1`: the inhibition in series [9] stood at 13%.
For the molecule `Cc1ccccc1C1=[N+]([O-])c2ccccc2C1=O`, the IC50 was 2.2 µM in series [3], 3.9 µM in [5] and 0.46 µM in series [6]. Further, the Ratio IC50 in the series listed under Homo sapiens was found to be 5. In addition, in series [10], the inhibition is above 75%. Further, the CC50 at 24 h in [7] is 12 µM.
For `Clc1ccc(SCNc2ccccc2Cl)cc1`, the IC50 came to 5.5 µM in series [1]; 0.87 µM in series [3]; 1.5 µM in [4]; 6.3 µM in series [5]; 4.5 µM in [6]. The Ratio IC50 in the series filed under Homo sapiens came out at 0.2. In [11], this molecule came in with an inhibition below 25%. Besides, the CC50 at 24 h in [7] came to 40 µM.
With `Oc1nccc(SCc2ccc(Cl)cc2Cl)n1`, the IC50 was 4.3 µM in [1]; 0.2 to 3 µM in series [12]; 20 µM in series [3]; 0.75 µM in series [4]; 4.4 µM in [5]; 7.5 µM in series [6]. In addition, the Ratio IC50 in the series listed under Homo sapiens was determined as 3. The Activity result with LLTC cell line is given as “Non-Toxic”. Moreover, the CC50 at 24 h in series [7] is above 117 µM. In addition, the inhibition in [13] is below 25%.
With `Oc1ccccc1-c1nc2c3ccccc3c3ccccc3c2[nH]1`, the IC50 in series [1] is 7.8 µM; in [3] it was 26 to 980 µM; in series [4], 4.9 µM; in series [5], 52 µM; in series [6], 3.3 to 9 µM. Moreover, the Ratio IC50 in the series listed under Homo sapiens was in the range of 8 to 109. For the same molecule, the values for the inhibition in series [14] and in series [15] were 2% and below 25%, respectively. The CC50 at 24 h in series [7] is above 100 µM.
Take `O=C1C(c2ccccc2)=Nc2ccccc21`: the IC50 in series [5] came out at 114 µM. Besides, in series [7], the CC50 at 24 h turned out to be 220 µM. Moreover, the inhibition in [16] amounted to 9%.
